Columns and labels:
[1] = tested on: Rhipicephalus sanguineus; test: Assay for transdermal parasiticidal activity against nymphs of Rhipicephalus sanguineus; type: in vivo; details: 48 h, read-out: mortality rate
Text: Assay for Transdermal Parasiticidal Activity Against Nymphs of Rhipicephalus sanguineus
DMSO diluted solutions of various compounds of the present invention were individually diluted to the final concentration of 100 ppm with an acetone/triton mixture and applied to the inside of vented sample bottles. After overnight drying, ten nymphs of R. sanguineus were introduced into each bottle, and the mortality rate was examined two days later. Aberrant adults were regarded as the dead.

[2] = tested on: Haemonchus contortus; test: Larval motility assay on Haemonchus contortus; details: 96 h, L1 stage larvae, 4 days, relative to DMSO only, read-out: percent motility inhibition
Method: Larval Motility Assay on Haemonchus contortus DMSO diluted solutions of various compounds of the present invention were added at the final concentration of 50 ppm to the wells of a 96-well plate containing a predetermined conditioned medium. Twenty L1 stage larvae of H. contortus were introduced into each well of the 96-well plate. The plate was allowed to stand for 4 days, and then larval motility was examined. The percent motility inhibition in the wells of each treatment was calculated relative to the wells of treatment with DMSO only.

[3] = tested on: Ctenocephalides felis; test: whole plant or invertebrate; type: in vivo; details: 50 ppm in bovine blood, oral via feeder, adults, following day, read-out: mortality rate
[4] = tested on: Dirofilaria immitis; test: Larval motility assay on Dirofilaria immitis; details: 72 h, L1 stage larvae, 3 days, relative to DMSO only, read-out: percent motility inhibition
Method: Larval Motility Assay on Dirofilaria immitis
Five hundred L1 stage larvae of D. immitis were diluted in a predetermined conditioned medium and introduced into each well of a 96-well plate. DMSO diluted solutions of various compounds of the present invention were added at the final concentration of 50 ppm to the wells of the 96-well plate. The plate was allowed to stand for 3 days, and then larval motility was examined. The percent motility inhibition in the wells of each treatment was calculated relative to the wells of treatment with DMSO only.

CCS(=O)(=O)c1cc(/C(=N/OCCSC)OC)cnc1-c1nc2cc(C(F)(F)C(F)(F)F)nnc2n1C [Compound 1-1, methyl 5-ethylsulfonyl-N-(2-methylthioethoxy)-6-(6-pentafluoroethyl-3-methyl-3H-imidazo[4,5-c]pyridazin-2-yl)nicotinimidate]
mortality at 100 ppm [1]: ≥ 50%
inhibition at 50 ppm [2]: ≥ 50%
mortality at 50 ppm [3]: ≥ 50%
inhibition at 50 ppm [4]: ≥ 50%

CCS(=O)(=O)c1cc(/C(=N/OCCS(C)(=O)=O)OC)cnc1-c1nc2cc(C(F)(F)C(F)(F)F)nnc2n1C [Compound 1-3, Methyl 5-ethylsulfonyl-N-(2-methylsulfonylethoxy)-6-(6-pentafluoroethyl-3-methyl-3H-imidazo[4,5-c]pyridazin-2-yl)nicotinimidate]
inhibition at 50 ppm [2]: ≥ 50%
mortality at 50 ppm [3]: ≥ 50%
inhibition at 50 ppm [4]: ≥ 50%

CCS(=O)(=O)c1cc(/C(Br)=N/OCCSC)cnc1-c1nc2cc(C(F)(F)C(F)(F)F)nnc2n1C [Compound 1-16]
inhibition at 50 ppm [4]: ≥ 50%

CCS(=O)(=O)c1cc(/C(=N/OCCSC)SC)cnc1-c1nc2cc(C(F)(F)C(F)(F)F)nnc2n1C [Compound 1-19, Methyl 5-ethylsulfonyl-N-(2-methylthioethoxy)-6-(6-pentafluoroethyl-3-methyl-3H-imidazo[4,5-c]pyridazin-2-yl)nicotinyl thioimidate]
mortality at 100 ppm [1]: ≥ 50%
inhibition at 50 ppm [2]: ≥ 50%
inhibition at 50 ppm [4]: ≥ 50%

CCS(=O)(=O)c1cc(/C(=N/OCCSC)n2cncn2)cnc1-c1nc2cc(C(F)(F)C(F)(F)F)nnc2n1C [Compound 1-22]
inhibition at 50 ppm [2]: ≥ 50%
mortality at 50 ppm [3]: ≥ 50%
inhibition at 50 ppm [4]: ≥ 50%
